# Tested on: T cells in PBMCs purified from a healthy donor
# Test: Three color flow cytometric staining of PBMCs with lipid loaded CD1d-Fc aggregates
# Assay type: cell-based, human
# Conditions: CD1d-Fc aggregate treated with antigen, anti-CD3 and anti-CD161 co-staining
# Description: To facilitate binding to CD1 specific T cells for detection by flow cytometry, a highly multimerized form of the CD1d fusion protein was formed using fluorescently labeled protein A molecules. Protein A molecules spontaneously associate in solution at neutral pH with immunoglobulin Fc regions, forming complexes containing four Fc molecules and two protein A molecules (4+2 complexes, reference 2). The human CD1d-Fc fusion protein was incubated with Alexa 488 dye labeled protein A, and the 4+2 complexes purified by size exclusion chromatography on a Pharmacia Superose 6 column using PBS pH 7.2 as a running buffer. The purified 4+2 aggregates were concentrated to 100 μg/ml with ovalbumin as a carrier protein. The CD1d-Fc aggregate was then pre-incubated for 24 to 48 hours at 37° C. with antigenic glycolipids dissolved in DMSO at a 40:1 molar ratio of lipid to fusion protein, or with an equivalent volume of DMSO alone as a negative control. The T cell staining was performed at room temperature or 4° C. for 20 min, at a concentration of 40 μg/ml of the lipid or control treated CD1d-Fc aggregate.
# To facilitate binding to CD1 specific T cells for detection by flow cytometry, a highly multimerized form of the CD1d fusion protein is formed using fluorescently labeled protein A molecules. […]
compound,measurement,value
"CCCCCCCCCCCCCCCCCCCCCCCCCC(=O)N[C@@H](CO[C@H]1O[C@H](CO)[C@H](O)[C@H](O)[C@H]1O)[C@H](O)[C@H](O)CCCCCCCCCCCCCC [α-GalCer, α-galactosylceramide]",T cells stained relative to CD1d-Fc treated with DMSO alone,about 6 fold
same,T cells stained relative to the UPC10 negative control,about 10 fold
